Measurements reported in the supplement of paper PMC11061612.

Experiments:
[1] = test system: TYK-nu (Ovarian Carcinoma); assay: Bliss excess, mean over the matrix (fraction); higher = more synergy
Method in brief: (§1)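 Cell lines grown in DMEM/F12 or RPMI with 10% FBS were plated in 1536-well plates and held 24 hours at 37°C, 5% CO2 before 72 hours of exposure to two-drug dose matrices, with DMSO typically at 0.2%. CellTiter-Glo 2.0 luminescence gave viability, which was converted to inhibition. Vehicle wells were set to 0 and blank wells to 1. Combination Emax is the second-highest inhibition in the matrix, and Bliss excess is the observed combination effect minus the expected EA + EB − EA·EB, where EA and EB are the single-agent effects.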

[2] = test system: SKN-3 (Head and Neck Carcinoma); assay: as above
Method in brief: as §1

MCF7 (Breast Carcinoma) [3] = assay: as above
Method in brief: as §1

[4] = test system: 647-V (Bladder Carcinoma); assay: as above
Method in brief: as §1

[5] = test system: RCC10RGB (Kidney Carcinoma); assay: as above
Method in brief: as §1

[6] = test system: KG-1 (Acute Myeloid Leukemia); assay: as above
Method in brief: as §1

[7] = test system: ETK-1 (Biliary Tract Carcinoma); assay: as above
Method in brief: as §1

[8] = test system: HCC-827 (Lung Adenocarcinoma); assay: as above
Method in brief: as §1

[9] = test system: GDM-1 (Acute Myeloid Leukemia); assay: as above
Method in brief: as §1

[10] = test system: NCI-H1688 (Small Cell Lung Carcinoma); assay: as above
Method in brief: as §1

[11] = test system: EFM-192A (Breast Carcinoma); assay: as above
Method in brief: as §1

[12] = test system: HCC1143 (Breast Carcinoma); assay: as above
Method in brief: as §1

[13] = test system: U-118-MG (Low Grade Glioma); assay: as above
Method in brief: as §1

[14] = test system: MES-SA (Other Solid Carcinomas); assay: as above
Method in brief: as §1

[15] = test system: PA-TU-8902 (Pancreatic Carcinoma); assay: as above
Method in brief: as §1

[16] = test system: SNU-61 (Colorectal Carcinoma); assay: as above
Method in brief: as §1

A172 (Glioblastoma) [17] = assay: as above
Method in brief: as §1

[18] = test system: HOP-92 (Non-Small Cell Lung Carcinoma); assay: as above
Method in brief: as §1

[19] = test system: JHH-6 (Hepatocellular Carcinoma); assay: as above
Method in brief: as §1

HuO9 (Osteosarcoma) [20] = assay: as above
Method in brief: as §1

[21] = test system: TYK-nu (Ovarian Carcinoma); assay: combination Emax (second highest fraction inhibited in the dose matrix, 72 h); higher = more inhibition; extreme values may be limits of the assay
Method in brief: as §1

[22] = test system: SKN-3 (Head and Neck Carcinoma); assay: as above
Method in brief: as §1

MCF7 (Breast Carcinoma) [23] = assay: as above
Method in brief: as §1

[24] = test system: 647-V (Bladder Carcinoma); assay: as above
Method in brief: as §1

[25] = test system: RCC10RGB (Kidney Carcinoma); assay: as above
Method in brief: as §1

[26] = test system: KG-1 (Acute Myeloid Leukemia); assay: as above
Method in brief: as §1

[27] = test system: ETK-1 (Biliary Tract Carcinoma); assay: as above
Method in brief: as §1

[28] = test system: HCC-827 (Lung Adenocarcinoma); assay: as above
Method in brief: as §1

[29] = test system: GDM-1 (Acute Myeloid Leukemia); assay: as above
Method in brief: as §1

[30] = test system: NCI-H1688 (Small Cell Lung Carcinoma); assay: as above
Method in brief: as §1

[31] = test system: EFM-192A (Breast Carcinoma); assay: as above
Method in brief: as §1

[32] = test system: HCC1143 (Breast Carcinoma); assay: as above
Method in brief: as §1

[33] = test system: U-118-MG (Low Grade Glioma); assay: as above
Method in brief: as §1

[34] = test system: MES-SA (Other Solid Carcinomas); assay: as above
Method in brief: as §1

[35] = test system: PA-TU-8902 (Pancreatic Carcinoma); assay: as above
Method in brief: as §1

[36] = test system: SNU-61 (Colorectal Carcinoma); assay: as above
Method in brief: as §1

A172 (Glioblastoma) [37] = assay: as above
Method in brief: as §1

[38] = test system: HOP-92 (Non-Small Cell Lung Carcinoma); assay: as above
Method in brief: as §1

[39] = test system: JHH-6 (Hepatocellular Carcinoma); assay: as above
Method in brief: as §1

HuO9 (Osteosarcoma) [40] = assay: as above
Method in brief: as §1
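Wherever Bliss excess, mean over the matrix is given: after 72 h of two-drug dosing.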

SMILES	Bliss excess [1]	Bliss excess [2]	Bliss excess (MCF7 (Breast Carcinoma) [3])	Bliss excess [4]	Bliss excess [5]	Bliss excess [6]	Bliss excess [7]	Bliss excess [8]	Bliss excess [9]	Bliss excess [10]	Bliss excess [11]	Bliss excess [12]	Bliss excess [13]	Bliss excess [14]	Bliss excess [15]	Bliss excess [16]	Bliss excess (A172 (Glioblastoma) [17])	Bliss excess [18]	Bliss excess [19]	Bliss excess (HuO9 (Osteosarcoma) [20])	combination Emax [21]	combination Emax [22]	combination Emax (MCF7 (Breast Carcinoma) [23])	combination Emax [24]	combination Emax [25]	combination Emax [26]	combination Emax [27]	combination Emax [28]	combination Emax [29]	combination Emax [30]	combination Emax [31]	combination Emax [32]	combination Emax [33]	combination Emax [34]	combination Emax [35]	combination Emax [36]	combination Emax (A172 (Glioblastoma) [37])	combination Emax [38]	combination Emax [39]	combination Emax (HuO9 (Osteosarcoma) [40])
COc1nnc2ccc(N3CCC(c4ccc(OCCN5CCN(C)C(=O)[C@H]5C)cc4)CC3)nn12 [AZD5153] + CN(CC[C@H](CSC1=CC=CC=C1)NC2=C(C=C(C=C2)S(=O)(=O)NC(=O)C3=CC=C(C=C3)N4CCC(CC4)[C@H](C5=CC=CC=C5C6=CC=C(C=C6)Cl)O)S(=O)(=O)C(F)(F)F)CCO [AZD4320] (first compound max 1 µM, 7x7, partner max 1 µM)	0.0168	-0.0093	-0.0031	0.0463	-0.0004	0.0754	0.0015	0.0292	0.0276	-0.0021	0.0355	0.0577	0.0051	0.0545	0.0058	-0.005	0.037	0.0252	-0.0296	0.028	0.628	0.452	0.699	0.513	0.548	1	0.48	0.483	1	0.509	0.308	0.454	0.417	0.393	0.269	0.392	0.568	0.936	0.521	0.938
C[C@@H](c1ccc2nccn2c1)n1nnc2ncc(-c3cnn(C)c3)nc21 [Savolitinib] + CN(CC[C@H](CSC1=CC=CC=C1)NC2=C(C=C(C=C2)S(=O)(=O)NC(=O)C3=CC=C(C=C3)N4CCC(CC4)[C@H](C5=CC=CC=C5C6=CC=C(C=C6)Cl)O)S(=O)(=O)C(F)(F)F)CCO [AZD4320] (first compound max 1 µM, 7x7, partner max 1 µM)	-0.03	-0.0338	-0.0156	-0.0378	-0.048	-0.0251	-0.0216	-0.0001	-0.0256	0.0359	0.0065	0.0021	-0.0222	-0.0197	-0.0909	-0.0357	-0.0551	-0.002	-0.0639	-0.0704	0.283	0.187	0.162	0.15	0.33	0.873	0.181	0.236	1	0.538	0.258	0.268	0.402	0.152	0.26	0.183	0.112	0.888	0.0904	0.745
CC(=O)c1c(C)c2cnc(Nc3ccc(N4CCNCC4)cn3)nc2n(C2CCCC2)c1=O [Palbociclib] + CN(CC[C@H](CSC1=CC=CC=C1)NC2=C(C=C(C=C2)S(=O)(=O)NC(=O)C3=CC=C(C=C3)N4CCC(CC4)[C@H](C5=CC=CC=C5C6=CC=C(C=C6)Cl)O)S(=O)(=O)C(F)(F)F)CCO [AZD4320] (first compound max 10 µM, 7x7, partner max 1 µM)	-0.0257	-0.058	-0.0486	-0.0393	-0.0344	0.0673	-0.0826	-0.0307	-0.0087	-0.0438	-0.041	-0.0178	-0.0302	-0.0374	-0.085	-0.0753	-0.115	-0.0491	-0.0496	0.0272	0.37	0.277	0.45	0.211	0.667	0.984	0.292	0.288	1	0.657	0.165	0.332	0.466	0.445	0.323	0.136	0.647	0.891	0.381	0.841
